Laboratory results reported in patent publication US8067423B2, “Polymorphs of dasatinib isopropyl alcohol and process for preparation thereof” (Teva Pharmaceutical Industries Ltd., priority 2007, dated 2011).

What was measured:
Assay type in all cases: physicochemical
[1] = Blend with excipients pressed to a tablet, analyzed by PXRD; conditions: 70 mg form A3 with lactose monohydrate, magnesium stearate, microcrystalline celulose, hydroxypropylmethyl celulose
Experimental: (§1) XRD diffraction was performed on X-Ray powder diffractometer: Philips X'pert Pro powder diffractometer, CuKα radiation, λ=1.5418 Å. X'Celerator detector active length (2 theta)=2.122°, laboratory temperature 22-25° C. Zero background sample holders. Prior to analysis the samples were gently ground by means of mortar and pestle in order to obtain a fine powder. The ground sample was adjusted into a cavity of the sample holder and the surface of the sample was smoothed by means of a cover glass.

[2] = Heating of form A3 on oil bath up to 208° C., MS check; conditions: 200 mg heated gradually up to 208° C. at final 0.7 Pa for about 15 min
Experimental: Dasatinib (200 mg, form A3) was heated on oil bath gradually up to 208° C. at final 0.7 Pa for about 15 min.

[3] = Slurry of form N-6 in methanol: conversion to form B, solid phase analyzed by PXRD; conditions: for content of form B in the recovered solid (PXRD): form N-6 75 mg slurried in 1 ml methanol, filtered, dried on air
Experimental: as §1
Dasatinib (form N-6, 75 mg) was put into vial and 1 ml of methanol was added. The slurry was then left at 0° C. for 2 days. The solid phase was filtered off and left to dry on air.
Dasatinib (form N-6, 75 mg) was put into vial and 1 ml of methanol was added. The slurry was then left at 20° C. for 2 days respectively. The solid phase was filtered off and left to dry on air.

## Cc1nc(Nc2ncc(C(=O)Nc3c(C)cccc3Cl)s2)cc(N2CCN(CCO)CC2)n1 [form A3, dasatinib]
[1]
  crystalline form found in the pressed tablet (PXRD): belonging to form A3
[2]
  chemical change on heating (MS): without any chemical change
  sublimation on heating: None sublimation was observed

## Cc1nc(Nc2ncc(C(=O)Nc3c(C)cccc3Cl)s2)cc(N2CCN(CCO)CC2)n1 [form B, dasatinib]
[3]; at a temperature of about 20° C. and below
  stability of the crystalline form: relatively stable

## Cc1nc(Nc2ncc(C(=O)Nc3c(C)cccc3Cl)s2)cc(N2CCN(CCO)CC2)n1 [form N-6, dasatinib]
[3]; left at 0° C. for 2 days
  content of form B in the recovered solid (PXRD): about 10%
[3]; left at 20° C. for 2 days
  content of form B in the recovered solid (PXRD): about 1%
[3]; slurried at about 20° C. to about 0° C. for 2 days
  polymorphic conversion on slurrying: converted to form B
